Counter-ions that a name gives are not always drawn. Like-named read-outs stand apart in the source and are kept apart here.
Assays:
[1] = system: MES-SA/Dx5 cells; experiment: PrestoBlue viability assay, MES-SA/Dx5 cells (MDR, P-gp positive); conditions: for SR: selectivity ratio MES-SA vs MES-SA/Dx5, without TQ; for SR_TQ: selectivity ratio MES-SA vs MES-SA/Dx5, with TQ
[2] = system: MES-SA cells; experiment: PrestoBlue viability assay, MES-SA cells
[3] = system: A431-B1 cells; experiment: PrestoBlue viability assay, A431-B1 (A431-ABCB1) cells
[4] = system: A431 cells; experiment: PrestoBlue viability assay, A431 cells
[5] = UV-visible spectrophotometric titrations (pKa); format: physicochemical; conditions: water with 0.2% (v/v) DMSO, 25 °C
Protocol: Spectrophotometrical determination of pKa values was performed as previously reported.[20],[50] An Agilent Cary 8454 diode array spectrophotometer was used to record the UV–visible spectra in the interval 200–800 nm. The path length was between 1 and 5 cm. The spectrophotometric titrations were performed in water with 0.2% (v/v) DMSO on samples containing the compounds at 2–50 μM in the pH range from 2 to 11.5 at 25.0 ± 0.1 °C at an ionic strength of 0.10 M (KCl). Proton dissociation constants and the individual spectra of the species in the different protonation states were calculated with the computer program PSEQUAD.[62]

[6] = Homo sapiens, MES-SA/Dx5, 72 h, read-out: IC50 / μM MES-SA/Dx5, absence of TQ, 72 h incubation
[7] = Homo sapiens, MES-SA/Dx5, read-out: pIC50 value MES-SA/Dx5, MES-SA/Dx5 cells, without TQ (converted)
[8] = Homo sapiens, MES-SA, 72 h, read-out: IC50 / μM MES-SA, absence of TQ, 72 h incubation
[9] = Homo sapiens, MES-SA, read-out: pIC50 value MES-SA, MES-SA cells, without TQ (converted)
[10] = Homo sapiens, MES-SA/Dx5, read-out: IC50 / μM MES-SA/Dx5 (values in parentheses), presence of 1 μM P-gp inhibitor tariquidar (TQ)
[11] = Homo sapiens, MES-SA/Dx5, read-out: pIC50 value MES-SA/Dx5 + TQ, MES-SA/Dx5 cells, with TQ (converted)
[12] = 72 h, read-out: IC50 / µM A431-B1, 72 h incubation
[13] = read-out: pIC50 A431-B1, SARM figure (converted)
[14] = Homo sapiens, MES-SA, read-out: IC50 / μM MES-SA (values in parentheses), presence of 1 μM P-gp inhibitor tariquidar (TQ)
[15] = Homo sapiens, MES-SA, read-out: pIC50 value MES-SA+TQ, MES-SA cells, with TQ (converted)
[16] = Homo sapiens, A-431, 72 h, read-out: IC50 / µM A431, 72 h incubation
[17] = Homo sapiens, A-431, read-out: pIC50 A431, SARM figure (converted)
[18] = 0.2% DMSO, I = 0.10 M KCl, read-out: pKa (OH), experimentally determined
[19] = quinolinium nitrogen, I = 0.10 M KCl, read-out: pKa (NquinH+), experimentally determined
[20] = read-out: IC50 / μM MES-SA/Dx5, absence of TQ, 72 h incubation
[21] = read-out: IC50 / μM MES-SA, absence of TQ, 72 h incubation
[22] = piperidinium / pyrrolidinium / morpholinium N, read-out: pKa (other; N+amH alkylamine nitrogen), experimentally determined
[23] = Homo sapiens, MES-SA, read-out: pIC50 MES-SA, absence of TQ (converted), SARM figure

SMILES | IC50 [1, 6] [µM] | IC50 [1, 7] [µM] | SR [1] | IC50 [2, 8] [µM] | IC50 [2, 9] [µM] | melting point [°C] | IC50 [1, 10] [µM] | IC50 [1, 11] [µM] | SR_TQ [1] | IC50 [3, 12] [µM] | IC50 [3, 13] [µM] | IC50 [2, 14] [µM] | IC50 [2, 15] [µM] | IC50 [4, 16] [µM] | IC50 [4, 17] [µM] | pKa [5, 18] | pKa [5, 19] | pKa [5, 22] | further results
CN1CCN(Cc2cnc3ccccc3c2O)CC1 [Compound 71, 3-((4-Methylpiperazin-1-yl)methyl)quinolin-4-ol] | 91 | 91.2 | 1.04 | 94.9 ± 2.02 | 95.5 | 164 to 166 |  |  |  |  |  |  |  |  |  |  |  |  | 
CN1CCN(Cc2ccc3ccccc3c2O)CC1 [Compound 70, 2-((4-Methylpiperazin-1-yl)methyl)naphthalen-1-ol] | > 100 |  |  | > 100 |  | 79 to 81 |  |  |  |  |  |  |  |  |  |  |  |  | 
Oc1cc2c(cc1O)CN(Cc1ccc3cccnc3c1O)CC2 (as salt: hydrochloride) [Compound 82, 2-((8-Hydroxy-quinolin-7-yl)methyl)-1,2,3,4-tetrahydroisoquinoline-6,7-diol Hydrochloride] |  |  |  |  |  | 203 to 206 |  |  |  |  |  |  |  |  |  |  |  |  | 
Oc1c(CN2CCN(c3ccccc3)CC2)cc(Cl)c2cccnc12 [Compound 38] | 0.59 ± 0.26 | 0.537 | 5.84 | 3.42 ± 1.17 | 3.24 |  | 1.87 ± 0.75 | 1.74 | 1.91 | 6.31 ± 2.64 | 5.75 | 3.57 ± 1.18 | 3.39 | 7.38 ± 1.23 | 7.24 | 6.21 ± 0.03 | 1.7 ± 0.1 |  | pKa ([5]; read-out: pKa (NpiperaziniumH+ closer to quinoline ring), experimentally determined): 10.1 ± 0.03
Oc1c(C(c2cccnc2)N2CCCCC2)ccc2cccnc12 (centres unmarked) [Compound 92, 7-((Piperidine-1-yl)(pyridin-3-yl)methyl)quinolin-8-ol] | 8.58 ± 0.38 | 8.51 | 1.59 | 13.65 ± 0.12 | 13.5 | 178 to 179 |  |  |  |  |  |  |  |  |  |  |  |  | 
COCc1ccc(O)c2ncccc12 [Compound 14] | 1.79 ± 0.09 | 1.78 | 1.4 | 2.51 ± 0.13 | 2.51 |  |  |  |  |  |  |  |  |  |  | 9.43 ± 0.03 | 4.64 ± 0.03 |  | 
Oc1c(CN2CCCCC2)cc(Br)c2cccnc12 [Compound 20, 5-Bromo-7-(piperidin-1-ylmethyl)quinolin-8-ol] | 0.17 ± 0.02 | 0.166 | 10.67 | 1.79 ± 0.16 | 1.78 |  | 1.32 ± 0.08 | 1.32 | 1.29 | 2.16 ± 0.35 | 1.58 | 1.71 | 1.7 | 6.91 ± 1.37 | 6.76 | 7.16 ± 0.03 | 1.8 ± 0.1 | > 11 | IC50 ([1]; read-out: IC50 / μM MES-SA/Dx5 (values in parentheses), presence of 1 μM P-gp inhibitor tariquidar (TQ)): 1.33 µM; IC50 [1, 20]: 0.16 ± 0.02 µM; IC50 [2, 21]: 1.78 ± 0.17 µM
CCOCc1cc(CN2CCCC2)c(O)c2ncccc12 [Compound 18] | 0.93 ± 0.18 | 0.912 | 9.27 | 8.61 ± 1.31 | 8.51 |  | 5.25 ± 0.18 | 5.25 | 1.66 | 5.92 ± 2.14 | 5.62 | 8.73 ± 0.54 | 8.71 | 35.2 ± 11.5 | 33.1 | 7.89 ± 0.03 | 2.49 ± 0.03 | 11.21 ± 0.03 | 
CC(C)OCc1cc(CN2CCCCC2)c(O)c2ncccc12 [Compound 24] | 0.48 ± 0.04 | 0.479 | 12.57 | 6.03 ± 0.29 | 6.03 |  | 4.37 ± 0.24 | 4.37 | 1.32 | 1.91 ± 0.18 | 1.91 | 5.76 ± 0.15 | 5.75 | 7.53 ± 1 | 7.41 | 7.66 ± 0.03 | 2.43 ± 0.03 | > 11 | 
Oc1c(CN2CCCCC2)cc(Cl)c2cccnc12 [Compound 19] | 0.29 ± 0.05 | 0.282 | 8.71 | 2.49 ± 0.39 | 2.45 |  | 2.58 | 2.57 | 1.31 | 1.69 ± 0.27 | 1.66 | 3.38 | 3.39 | 6.67 ± 1.69 | 6.46 | 5.8 ± 0.03 | < 2 | > 11 | IC50 [2, 23]: 2.24 µM
Oc1c(C(c2ccccn2)N2CCOCC2)cc(Cl)c2cccnc12 (centres unmarked) [Compound 108] | 24.7 ± 4.26 | 24.5 | 1.62 | 40 ± 9.54 | 38.9 |  |  |  |  |  |  |  |  |  |  | 9.42 ± 0.03 | 1.89 ± 0.03 | 5.53 ± 0.03 | pKa ([5]; read-out: pKa (NpyridiniumH+), experimentally determined): < 2
CN1CCN(Cc2cc(Cl)c3cccnc3c2O)CC1 [Compound 9] | 1.59 ± 0.27 | 1.86 | 2.84 | 5.86 ± 0.98 | 5.37 |  | 4.3 | 4.27 | 1.19 | 3.55 ± 0.5 | 6.31 | 5.14 | 5.13 | 17 ± 1.04 | 14.5 | 9.63 ± 0.03 | 3.56 ± 0.03 |  | IC50 ([1]; Homo sapiens, MES-SA/Dx5, read-out: pIC50 Dx5, absence of TQ (converted), SARM figure): 1.55 µM; IC50 ([1]; Homo sapiens, MES-SA/Dx5, read-out: pIC50 Dx5_TQ, presence of 1 μM TQ (converted), SARM figure): 6.76 µM; IC50 [1, 20]: 1.9 ± 0.37 µM; IC50 ([3]; read-out: IC50 / µM A431-B1, 72 h incubation): 6.67 ± 2.4 µM; IC50 [2, 23]: 5.75 µM; IC50 ([2]; Homo sapiens, MES-SA, read-out: pIC50 MES-SA_TQ, presence of 1 μM TQ (converted), SARM figure): 10 µM; IC50 [2, 21]: 5.39 ± 0.47 µM; IC50 ([4]; read-out: IC50 / µM A431, 72 h incubation): 15.9 ± 7.44 µM; pKa ([5]; read-out: pKa (NpiperaziniumH+ at methyl / N-ethyl), experimentally determined): 5.61 ± 0.03

Reference: PMC9189845, “Structure–Activity Relationships of 8-Hydroxyquinoline-Derived Mannich Bases with Tertiary Amines Targeting Multidrug-Resistant Cancer” (Journal of Medicinal Chemistry, 2022)
